Assay results as given in patent US8273774B2, “Phenoxypyridinylamide compounds” (AstraZeneca AB, priority 2008, dated 2012).
Counter-ions that a name gives are not always drawn.

The molecules below were run against recombinant Human Phosphodiesterase B2 (PDE4B2) (Homo sapiens, UniProt Q07343) (assay: Human Phosphodiesterase B2 Radiometric Assay). Details: 0.1 μg/mL recombinant PDE4B2; preincubated at 30 C for 30 min; [3H]cyclic AMP 8 nM, stopped after 20 min; yttrium silicate SPA beads; read-out: PDE4B2 pIC50 (converted).
recombinant Human Phosphodiesterase B2 (PDE4B2), sequence (Q07343 1-564 isoform Q07343-2): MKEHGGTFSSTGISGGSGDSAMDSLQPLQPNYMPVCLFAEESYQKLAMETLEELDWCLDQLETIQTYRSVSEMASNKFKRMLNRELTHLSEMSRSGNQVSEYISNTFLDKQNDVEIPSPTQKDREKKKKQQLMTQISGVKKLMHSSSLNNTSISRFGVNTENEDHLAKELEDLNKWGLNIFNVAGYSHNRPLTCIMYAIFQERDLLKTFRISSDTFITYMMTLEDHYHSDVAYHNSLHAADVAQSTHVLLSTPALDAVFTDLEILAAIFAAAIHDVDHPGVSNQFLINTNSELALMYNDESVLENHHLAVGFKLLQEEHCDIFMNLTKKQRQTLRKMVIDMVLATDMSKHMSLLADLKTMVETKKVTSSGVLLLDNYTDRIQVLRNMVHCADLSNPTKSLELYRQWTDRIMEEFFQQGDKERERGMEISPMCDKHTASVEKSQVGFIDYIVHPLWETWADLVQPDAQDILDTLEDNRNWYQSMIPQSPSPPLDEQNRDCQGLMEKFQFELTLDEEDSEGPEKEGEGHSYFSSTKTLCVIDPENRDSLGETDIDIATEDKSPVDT
Type: biochemical
Summary of the method: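 Compounds preincubated 30 min at 30 C with 0.1 μg/mL recombinant PDE4B2 in 50 mM HEPES pH 7.5, 8.3 mM MgCl2, 1.7 mM EGTA, 0.01% Brij 35.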
`COc1c(CN2C[C@@H](C)N[C@@H](C)C2)cccc1-c1cccc(Oc2ncc(F)cc2C(=O)N[C@H]2CC[C@@H](NC(=O)c3cc(C)n(C)n3)CC2)c1` [Example 106, N-((1s,4s)-4-(1,5-dimethyl-1H-pyrazole-3-carboxamido)cyclohexyl)-2-(3′-(((3S,5R)-3,5-dimethylpiperazin-1-yl)methyl)-2′-methoxybiphenyl-3-yloxy)-5-fluoronicotinamide] showed an IC50 of 251 pM.
Work on `Cc1cc(C(=O)N[C@H]2CC[C@@H](NC(=O)c3cc(F)cnc3Oc3cccc(-c4cccc(CN5C[C@@H](C)N[C@@H](C)C5)c4Cl)c3)CC2)nn1C` [Example 107, 2-(2′-chloro-3′-(((3S,5R)-3,5-dimethylpiperazin-1-yl)methyl)biphenyl-3-yloxy)-N-((1s,4s)-4-(1,5-dimethyl-1H-pyrazole-3-carboxamido)cyclohexyl)-5-fluoronicotinamide] yielded an IC50 of 158 pM.
With `Cc1cc(C(=O)N[C@H]2CC[C@@H](NC(=O)c3cc(F)cnc3Oc3cccc(-c4cccc(CCCN5CCNCC5)c4)c3)CC2)nn1C` [Example 108, N-((1s,4s)-4-(1,5-dimethyl-1H-pyrazole-3-carboxamido)cyclohexyl)-5-fluoro-2-(3′-(3-(piperazin-1-yl)propyl)biphenyl-3-yloxy)nicotinamide] the IC50 was 20 pM.
For `Cc1cccc2nc(C(=O)N[C@H]3CC[C@@H](NC(=O)c4cc(F)cnc4Oc4cccc(-c5ccc(CN6CCC(N7CCCC7)CC6)cc5)c4)CC3)cn12` [Example 109, N-((1s,4s)-4-(5-fluoro-2-(4′-((4-(pyrrolidin-1-yl)piperidin-1-yl)methyl)biphenyl-3-yloxy)nicotinamido)cyclohexyl)-5-methylimidazo[1,2-a]pyridine-2-carboxamide], the IC50 was 63.1 pM.
`CN(C)CCN(C)Cc1ccc(-c2cccc(Oc3ncc(F)cc3C(=O)N[C@H]3CC[C@@H](NC(=O)c4cc5n(n4)CCCC5)CC3)c2)cc1` [Example 110, N-((1s,4s)-4-(2-(4′-(((2-(dimethylamino)ethyl)(methyl)amino)methyl)biphenyl-3-yloxy)-5-fluoronicotinamido)cyclohexyl)-4,5,6,7-tetrahydropyrazolo[1,5-a]pyridine-2-carboxamide hydrochloride] was tested, and the IC50 was 200 pM.
With `Cc1nc(C(=O)N[C@H]2CC[C@@H](NC(=O)c3cc(F)cnc3Oc3cccc(-c4ccc(CCN5CCC(N6CCCC6)CC5)cc4)c3)CC2)cs1` [Example 112, N-((1s,4s)-4-(5-fluoro-2-(4′-(2-(4-(pyrrolidin-1-yl)piperidin-1-yl)ethyl)biphenyl-3-yloxy)nicotinamido)cyclohexyl)-2-methylthiazole-4-carboxamide] the IC50 was 39.8 pM.
With `C[C@@H]1CN(Cc2ccc(-c3cccc(Oc4ncc(F)cc4C(=O)N[C@H]4CC[C@@H](NC(=O)c5cc6n(n5)CCCC6)CC4)c3)cc2)C[C@H](C)N1` [Example 113, N-((1s,4s)-4-(2-(4′-(((3S,5R)-3,5-dimethylpiperazin-1-yl)methyl)biphenyl-3-yloxy)-5-fluoronicotinamido)cyclohexyl)-4,5,6,7-tetrahydropyrazolo[1,5-a]pyridine-2-carboxamide] the IC50 was 50.1 pM.
Work on `O=C(N[C@H]1CC[C@@H](NC(=O)c2cc(F)cnc2Oc2cccc(-c3ccc(CN4CCNCC4)cc3)c2)CC1)c1cc2n(n1)CCCC2` [Example 114, N-((1s,4s)-4-(5-fluoro-2-(4′-(piperazin-1-ylmethyl)biphenyl-3-yloxy)nicotinamido)cyclohexyl)-4,5,6,7-tetrahydropyrazolo[1,5-a]pyridine-2-carboxamide] yielded an IC50 of 158 pM.
Work on `O=C(N[C@H]1CC[C@@H](NC(=O)c2cc(F)cnc2Oc2cccc(-c3ccc(CNCCCN4CCOCC4)cc3)c2)CC1)c1cn2cc(F)ccc2n1` [Example 115, 6-fluoro-N-((1s,4s)-4-(5-fluoro-2-(4′-((3-morpholinopropylamino)methyl)biphenyl-3-yloxy)nicotinamido)cyclohexyl)imidazo[1,2-a]pyridine-2-carboxamide] yielded an IC50 of 631 pM.
Work on `Cc1cccc2nc(C(=O)N[C@H]3CC[C@@H](NC(=O)c4cc(F)cnc4Oc4cccc(-c5ccc(CCCNC(C)C)cc5)c4)CC3)cn12` [Example 116, N-((1s,4s)-4-(5-fluoro-2-(4′-(3-(isopropylamino)propyl)biphenyl-3-yloxy)nicotinamido)cyclohexyl)-5-methylimidazo[1,2-a]pyridine-2-carboxamide] yielded an IC50 of 31.6 pM.
`O=C(N[C@H]1CC[C@@H](NC(=O)c2cc(F)cnc2Oc2cccc(-c3ccc(CCN4CCNCC4)cc3)c2)CC1)c1cn2cc(F)ccc2n1` [Example 117, 6-fluoro-N-((1s,4s)-4-(5-fluoro-2-(4′-(2-(piperazin-1-yl)ethyl)biphenyl-3-yloxy)nicotinamido)cyclohexyl)imidazo[1,2-a]pyridine-2-carboxamide] was tested, and the IC50 was 100 pM.
`O=C(N[C@H]1CC[C@@H](NC(=O)c2cc(F)cnc2Oc2cccc(-c3ccc(CCCN4CCNCC4)cc3)c2)CC1)c1cc2n(n1)CCCC2` [Example 118, N-((1s,4s)-4-(5-fluoro-2-(4′-(3-(piperazin-1-yl)propyl)biphenyl-3-yloxy)nicotinamido)cyclohexyl)-4,5,6,7-tetrahydropyrazolo[1,5-a]pyridine-2-carboxamide] was tested, and the IC50 was 39.8 pM.
`Cc1nc(C(=O)N[C@H]2CC[C@@H](NC(=O)c3cc(F)cnc3Oc3cccc(-c4ccc(CN(C)C)cc4CN4CCOCC4)c3)CC2)cs1` [Example 119, N-((1s,4s)-4-(2-(4′-((dimethylamino)methyl)-2′-(morpholinomethyl)biphenyl-3-yloxy)-5-fluoronicotinamido)cyclohexyl)-2-methylthiazole-4-carboxamide] was tested, and the IC50 was 79.4 pM.
Molecule `Cc1cc(C(=O)N[C@H]2CC[C@@H](NC(=O)c3cc(F)cnc3Oc3cccc(-c4ccc(CN(C)C)cc4CN4CCOCC4)c3)CC2)nn1C` [Example 120, N-((1s,4s)-4-(1,5-dimethyl-1H-pyrazole-3-carboxamido)cyclohexyl)-2-(4′-((dimethylamino)methyl)-2′-(morpholinomethyl)biphenyl-3-yloxy)-5-fluoronicotinamide] has an IC50 of 50.1 pM.
`O=C(N[C@H]1CC[C@@H](NC(=O)c2cc(F)cnc2Oc2cccc(-c3ccc(CCCN4CCNCC4)cc3)c2)CC1)c1cn2cc(F)ccc2n1` [Example 121, 6-fluoro-N-((1s,4s)-4-(5-fluoro-2-(4′-(3-(piperazin-1-yl)propyl)biphenyl-3-yloxy)nicotinamido)cyclohexyl)imidazo[1,2-a]pyridine-2-carboxamide] was tested, and the IC50 was 63.1 pM.
Work on `C[C@@H]1CN(Cc2ccc(-c3cccc(Oc4ncc(F)cc4C(=O)N[C@H]4CC[C@@H](NC(=O)c5cn6cc(F)ccc6n5)CC4)c3)c(CN3CCOCC3)c2)C[C@H](C)N1` [Example 122, N-((1s,4s)-4-(2-(4′-(((3S,5R)-3,5-dimethylpiperazin-1-yl)methyl)-2′-(morpholinomethyl)biphenyl-3-yloxy)-5-fluoronicotinamido)cyclohexyl)-6-fluoroimidazo[1,2-a]pyridine-2-carboxamide] yielded an IC50 of 39.8 pM.
In the case of `Cc1cccc2nc(C(=O)N[C@H]3CC[C@@H](NC(=O)c4cc(F)cnc4Oc4cccc(-c5ccc(CN6C[C@@H](C)N[C@@H](C)C6)cc5CN5CCOCC5)c4)CC3)cn12` [Example 123, N-((1s,4s)-4-(2-(4′-(((3S,5R)-3,5-dimethylpiperazin-1-yl)methyl)-2′-(morpholinomethyl)biphenyl-3-yloxy)-5-fluoronicotinamido)cyclohexyl)-5-methylimidazo[1,2-a]pyridine-2-carboxamide], the IC50 is reported as 63.1 pM.
With `C[C@@H]1CN(Cc2ccc(-c3cccc(Oc4ncc(F)cc4C(=O)N[C@H]4CC[C@@H](NC(=O)c5cc6n(n5)CCCC6)CC4)c3)c(CN3CCOCC3)c2)C[C@H](C)N1` [Example 124, N-((1s,4s)-4-(2-(4′-(((3S,5R)-3,5-dimethylpiperazin-1-yl)methyl)-2′-(morpholinomethyl)biphenyl-3-yloxy)-5-fluoronicotinamido)cyclohexyl)-4,5,6,7-tetrahydropyrazolo[1,5-a]pyridine-2-carboxamide] the IC50 was 50.1 pM.
In the case of `C[C@@H]1CN(Cc2cc(-c3cccc(Oc4ncc(F)cc4C(=O)N[C@H]4CC[C@@H](NC(=O)c5cnn6cccnc56)CC4)c3)ccc2O)C[C@H](C)N1` [Example 125, N-((1s,4s)-4-(2-(3′-(((3S,5R)-3,5-dimethylpiperazin-1-yl)methyl)-4′-hydroxybiphenyl-3-yloxy)-5-fluoronicotinamido)cyclohexyl)pyrazolo[1,5-a]pyrimidine-3-carboxamide], the IC50 is reported as 63.1 pM.
With `Cc1cc(C(=O)N[C@H]2CC[C@@H](NC(=O)c3cc(F)cnc3Oc3cccc(-c4cccc(CCCN5C[C@@H](C)N[C@@H](C)C5)c4)c3)CC2)nn1C` [Example 126, N-((1s,4s)-4-(1,5-dimethyl-1H-pyrazole-3-carboxamido)cyclohexyl)-2-(3′-(3-((3S,5R)-3,5-dimethylpiperazin-1-yl)propyl)biphenyl-3-yloxy)-5-fluoronicotinamide] the IC50 was 50.1 pM.
`O=C(N[C@H]1CC[C@@H](NC(=O)c2cc(F)cnc2Oc2cccc(-c3ccc(CCCN4CCCNCC4)cc3)c2)CC1)c1cc2n(n1)CCCC2` [Example 127, N-((1s,4s)-4-(2-(4′-(3-(1,4-diazepan-1-yl)propyl)biphenyl-3-yloxy)-5-fluoronicotinamido)cyclohexyl)-4,5,6,7-tetrahydropyrazolo[1,5-a]pyridine-2-carboxamide] showed an IC50 of 79.4 pM.
In the case of `O=C(N[C@H]1CC[C@@H](NC(=O)c2cc(F)cnc2Oc2cccc(-c3ccc(CCCNCCCO)cc3)c2)CC1)c1cc2n(n1)CCCC2` [Example 128, N-((1s,4s)-4-(5-fluoro-2-(4′-(3-(3-hydroxypropylamino)propyl)biphenyl-3-yloxy)nicotinamido)cyclohexyl)-4,5,6,7-tetrahydropyrazolo[1,5-a]pyridine-2-carboxamide], the IC50 is reported as 126 pM.
In the case of `Cc1cc(C(=O)N[C@H]2CC[C@@H](NC(=O)c3cc(F)cnc3Oc3cccc(-c4ccc(CCCN5CCNCC5)cc4)c3)CC2)nn1C` [Example 130, N-((1s,4s)-4-(1,5-dimethyl-1H-pyrazole-3-carboxamido)cyclohexyl)-5-fluoro-2-(4′-(3-(piperazin-1-yl)propyl)biphenyl-3-yloxy)nicotinamide], the IC50 is reported as 31.6 pM.
